Assay results published in patent US11154554B2, “Therapeutic combinations of a MEK inhibitor and a BTK inhibitor” (Acerta Pharma B.V., priority 2015, dated 2021).
Like-named read-outs stand apart in the source and are kept apart here.

Key:
CYP3A4 = CYP3A4 (Homo sapiens, UniProt P08684); assay: Loss of parent drug as catalyzed by CYPs; format: in vitro ADME; conditions: in vitro
hepatocytes = assay: In vitro metabolism in hepatocytes with 14C-labeled drug; format: in vitro ADME, mouse, rat, dog, rabbit, monkey, and human
[1] = Glutathione binding and depletion in vitro; format: in vitro ADME
CYP enzymes = assay: Nonclinical CYP interaction studies; format: in vitro ADME
B cell receptor = assay: Whole blood B cell receptor signalling assay (CD69 on CD19+ B cells); format: cell-based; conditions: whole blood of four healthy donors, 2 hours with compound, anti-human IgD 10 μg/mL for 18 hours, read-out: EC50, CD69 on gated CD19+ B cells
[2] = system: BCR activation markers CD69 and CD86; assay: In vivo potency, BCR activation markers after oral gavage; conditions: mice, 3 hours post-dose, BCR stimulated with IgM
Description: Mice were gavaged at increasing drug concentration and sacrificed at one time point (3 hours post-dose). BCR is stimulated with IgM and the expression of activation markers CD69 and CD86 are monitored by flow cytometry to determine ECovalues.
CD86 and CD69 are cell surface proteins that are BCR activation markers. […] BCR was stimulated with IgM and the expression of activation marker CD69 and CD86 are monitored by flow cytometry to determine EC50 values.

[3] = system: KrasLA2 non-small cell lung cancer (NSCLC) model; assay: KrasLA2 genetic tumor model of NSCLC; format: in vivo, mice; conditions: 15 mg/kg
Description: The model is designed to have sporadic expression in single cells of G12D mutant Kras off its own promoter triggered by spontaneous intrachromosomal recombination. Johnson, et al. Nature 2001, 410, 1111-16. While the mutant Kras protein is expressed in a few cells in all tissues, tumor development is seen only in the lung at high penetrance.

BTK = target: T1, BTK (Mus musculus, UniProt P35991); assay: Molecular probe assay of BTK occupancy in MDSCs of PDA mice; format: in vivo; conditions: 15 mg/kg BID; granulocytic and monocytic MDSC compartments; Day 8, 4 hours post dose
T1 construct: MDSCs were purified from tumor bearing PDA mice; endogenous in cells; host or cells: granulocytic and monocytic MDSCs from PDA mice dosed in vivo
T1 sequence (P35991 whole entry): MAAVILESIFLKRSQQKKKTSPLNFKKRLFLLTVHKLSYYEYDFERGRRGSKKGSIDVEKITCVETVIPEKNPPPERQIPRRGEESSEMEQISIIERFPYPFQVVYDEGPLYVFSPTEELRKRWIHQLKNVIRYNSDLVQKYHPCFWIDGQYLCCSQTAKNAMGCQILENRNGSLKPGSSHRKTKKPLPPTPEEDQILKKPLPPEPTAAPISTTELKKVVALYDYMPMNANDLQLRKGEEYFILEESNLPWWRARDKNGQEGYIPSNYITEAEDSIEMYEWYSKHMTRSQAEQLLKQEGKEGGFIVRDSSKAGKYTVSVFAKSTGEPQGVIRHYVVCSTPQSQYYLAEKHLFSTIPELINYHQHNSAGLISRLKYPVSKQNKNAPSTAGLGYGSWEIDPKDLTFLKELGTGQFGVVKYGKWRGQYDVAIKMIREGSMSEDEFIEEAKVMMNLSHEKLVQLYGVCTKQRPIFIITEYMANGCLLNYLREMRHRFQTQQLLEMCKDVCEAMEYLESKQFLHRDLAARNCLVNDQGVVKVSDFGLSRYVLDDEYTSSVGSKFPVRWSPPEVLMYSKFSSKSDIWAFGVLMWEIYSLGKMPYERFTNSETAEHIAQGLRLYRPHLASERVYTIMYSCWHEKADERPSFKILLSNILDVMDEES
Description: A molecular probe assay was used to calculate the percent irreversible occupancy of total BTK.

NK cells [4] = assay: NK cell degranulation/ADCC whole blood assay with obinutuzumab; format: cell-based, human; conditions: 1 hour pretreatment, MEC-1 opsonised with obinutuzumab 1 μg/mL, 4 hours
Description: Degranulation in whole blood was performed as follows. […] Exponentially growing cells were used. On the day of the experiment, 8 mL of blood was drawn from a normal volunteer into a test tube containing desirudin to obtain a final concentration of 50 μg/mL. A white blood cell (WBC) count of whole blood was performed. […] The ibrutinib control and two blinded BTK inhibitors were diluted in X-VIVO 15 serum-free hematopoietic cell medium (Lonza Group, Ltd.) to concentrations of 200 μM, 20 μM and 2 μM. 170 μL aliquots of unmanipulated whole blood were incubated with 10 μL BTK inhibitors or X-VIVO 15 medium for one hour into a plate. […] The samples were placed in a 5% CO2 incubator for 4 hours at 37° C.
After 4 hours, the samples were mixed gently and 50 μL aliquots were removed from each well and placed in fluorescence-activated cell sorting (FACS) test tubes. A 20 μL aliquot of anti-CD56-APC antibody and anti-CD107a-PE antibody was added. The samples were incubated for 20 minutes at room temperature in the dark. An aliquot of 2 mL of FACS lysing solution (BD Biosceinces) was added. The samples were again incubated for 5 minutes, and then centrifuged at 2000 rpm for 5 minutes. Supernatant was discarded and the cell pellet was resuspended in 500 μL of PBS. The samples were analyzed on the flow cytometer for CD107a^+ NK cells (CD56^+).

NK cells [5] = assay: Rituximab ADCC mediated by NK cells; format: cell-based
CD8^+ T cells [6] = assay: Cytotoxicity assay for CD8+ T cell function; format: cell-based; conditions: relative to vehicle
CD8^+ T cells [7] = assay: IFN-γ level measurements for CD8+ T cell function; format: cell-based; conditions: relative to vehicle
[8] = system: human platelet-mediated thrombus formation; assay: In vivo human thrombus formation in VWF HA1 mice (laser injury); conditions: human platelets preincubated with inhibitor, laser-induced injury
[9] = Metabolism in plasma, bile, and urine; format: in vivo; conditions: rats, dogs, and monkeys; preliminary evaluations
GPVI [10] = system: GPVI
GPVI [11] = assay: GPVI platelet aggregation
EGFR = EGFR (Homo sapiens, UniProt P00533); assay: EGF receptor phosphorylation in A431 cells
Sequence of EGFR (P00533 25-1210): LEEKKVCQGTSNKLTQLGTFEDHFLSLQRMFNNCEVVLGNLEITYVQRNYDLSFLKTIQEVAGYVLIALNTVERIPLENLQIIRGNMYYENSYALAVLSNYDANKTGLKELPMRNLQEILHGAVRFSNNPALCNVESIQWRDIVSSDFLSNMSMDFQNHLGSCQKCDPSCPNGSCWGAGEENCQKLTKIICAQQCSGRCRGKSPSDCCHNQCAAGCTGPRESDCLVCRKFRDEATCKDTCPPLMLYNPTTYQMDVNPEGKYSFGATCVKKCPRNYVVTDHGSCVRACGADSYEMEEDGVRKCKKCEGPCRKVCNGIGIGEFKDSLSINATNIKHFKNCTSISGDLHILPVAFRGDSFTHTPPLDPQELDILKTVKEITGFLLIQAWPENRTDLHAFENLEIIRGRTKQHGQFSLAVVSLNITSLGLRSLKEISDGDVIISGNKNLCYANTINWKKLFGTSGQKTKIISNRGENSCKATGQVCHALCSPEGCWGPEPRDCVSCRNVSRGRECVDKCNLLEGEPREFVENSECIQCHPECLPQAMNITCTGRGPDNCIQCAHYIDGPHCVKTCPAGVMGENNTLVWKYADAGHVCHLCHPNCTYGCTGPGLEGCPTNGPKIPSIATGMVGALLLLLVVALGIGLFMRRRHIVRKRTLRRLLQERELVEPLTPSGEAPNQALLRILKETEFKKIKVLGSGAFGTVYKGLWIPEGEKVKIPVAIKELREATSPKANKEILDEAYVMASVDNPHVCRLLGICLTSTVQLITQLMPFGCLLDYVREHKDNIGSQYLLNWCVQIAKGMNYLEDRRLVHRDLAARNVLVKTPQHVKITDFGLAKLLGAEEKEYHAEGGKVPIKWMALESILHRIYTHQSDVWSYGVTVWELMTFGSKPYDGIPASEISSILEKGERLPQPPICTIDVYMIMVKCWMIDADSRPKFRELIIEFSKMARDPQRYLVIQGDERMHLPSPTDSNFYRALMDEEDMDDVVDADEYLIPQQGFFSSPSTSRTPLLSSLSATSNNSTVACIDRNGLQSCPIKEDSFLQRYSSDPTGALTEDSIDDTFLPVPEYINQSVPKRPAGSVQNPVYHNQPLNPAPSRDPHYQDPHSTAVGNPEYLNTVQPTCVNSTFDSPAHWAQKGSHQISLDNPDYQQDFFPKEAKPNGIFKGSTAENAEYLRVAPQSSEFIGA

[12] = system: 80 known pharmacologic targets such as G-protein-coupled receptors, nuclear receptors, proteases, and ion channels; assay: Binding assays on 80 known pharmacologic targets; conditions: screened at 10 μM
[13] = within the tested dose range (through 840 mg); cited from earlier work

Sequence of CYP3A4 (P08684 whole entry): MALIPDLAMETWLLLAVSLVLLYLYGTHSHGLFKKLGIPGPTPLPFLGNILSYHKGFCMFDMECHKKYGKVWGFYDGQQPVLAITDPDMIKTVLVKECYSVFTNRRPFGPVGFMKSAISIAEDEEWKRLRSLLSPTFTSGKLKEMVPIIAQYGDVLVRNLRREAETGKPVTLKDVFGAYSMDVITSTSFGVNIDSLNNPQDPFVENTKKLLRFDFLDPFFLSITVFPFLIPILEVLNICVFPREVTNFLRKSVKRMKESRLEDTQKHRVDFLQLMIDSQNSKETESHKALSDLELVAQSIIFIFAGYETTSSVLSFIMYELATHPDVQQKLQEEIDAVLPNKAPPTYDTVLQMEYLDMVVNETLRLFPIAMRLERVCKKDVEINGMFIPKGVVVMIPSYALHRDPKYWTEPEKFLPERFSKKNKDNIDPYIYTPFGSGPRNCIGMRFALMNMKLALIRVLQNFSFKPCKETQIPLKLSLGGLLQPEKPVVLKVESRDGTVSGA

CC#CC(=O)N1CCC[C@H]1c1nc(-c2ccc(C(=O)Nc3ccccn3)cc2)c2c(N)nccn12 [Formula (2), (S)-4-(8-amino-3-(1-(but-2-ynoyl)pyrrolidin-2-yl)imidazo[1,5-a]pyrazin-1-yl)-N-(pyridin-2-yl)benzamide]
CYP responsible for metabolism (CYP3A4): metabolized by CYP3A4 | unique human metabolite (hepatocytes; hepatocytes of six species): No unique human metabolite was identified | metabolites in hepatocytes (hepatocytes; mouse, rat, dog, rabbit, monkey, and human hepatocytes, 14C-labeled drug): two mono-oxidized metabolites and a glutathione conjugate | glutathione binding and depletion [1]: binds to glutathione but does not deplete glutathione | potential for CYP-mediated drug-drug interactions (CYP enzymes): very unlikely to cause clinical drug-drug interactions | EC50 (B cell receptor): 0.0082 µM | in vivo potency at inhibiting expression of activation markers CD69 and CD86 [2]: more potent at inhibiting expression of activation makers than Formula (10) (ibrutinib) | effects on TAMs, MDSCs, Tregs, and CD8+ cells [3]: consistent with suppression of the solid tumor microenviroment | number of tumors [3]: fewer overall tumors | tumor volumes versus vehicle [3]: significant decrease | irreversible occupancy of total BTK in MDSCs (BTK): Complete BTK occupancy | effect on CD56+/CD107a+ NK cells, obinutuzumab-stimulated degranulation (NK cells [4]): minimal effect | antagonism of rituximab ADCC effects mediated by NK cells (NK cells [5]): does not antagonize | CD8+ T cell function as measured by % cytotoxicity (CD8^+ T cells [6]): no effect | CD8+ T cell function as measured by IFN-γ level (CD8^+ T cells [7]): no effect | effect on human platelet-mediated thrombus formation [8]: no significant effect | metabolic processes in plasma, bile, and urine [9]: metabolic processes of oxidation, glutathione binding, and hydrolysis | inhibition of GPVI platelet aggregation (GPVI [10]): does not | IC50 (GPVI [11]; read-out: IC50, GPVI platelet aggregation, purified human platelets, Convulxin (CVX)): 1.15 µM | inhibition of in vitro EGFR phosphorylation (EGFR; 10 μM, A431 human epidermoid cancer cell line): no inhibition | inhibition at 10 µM (EGFR; A-431, read-out: EGF-induced p-EGFR inhibition): 7% | activity in binding assays with 80 known pharmacologic targets [12]: significant activity only against the A3 adenosine receptor

C=CC(=O)N1CCC[C@@H](n2nc(-c3ccc(Oc4ccccc4)cc3)c3c(N)ncnc32)C1 [Formula (10), 1-[(3R)-3-[4-amino-3-(4-phenoxyphenyl)-1H-pyrazolo[3,4-d]pyrimidin-1-yl]piperidin-1-yl]prop-2-en-1-one, reference compound]
EC50 (B cell receptor): 0.0061 µM | antagonism of rituximab ADCC effects mediated by NK cells (NK cells [5]): undesirably antagonizes | CD8+ T cell function as measured by % cytotoxicity (CD8^+ T cells [6]): affects CD8^+ T cell function | CD8+ T cell function as measured by IFN-γ level (CD8^+ T cells [7]): affects CD8^+ T cell function | maximum tolerated dose (MTD) [13]: No maximum tolerated dose (MTD) was apparent | inhibition of GPVI platelet aggregation (GPVI [11]; human platelets, CVX-induced): significantly inhibits

C=CC(=O)Nc1cccc(Nc2nc(Nc3ccc(OCCOC)cc3)ncc2F)c1 [Formula (17), N-(3-((5-fluoro-2-((4-(2-methoxyethoxy)phenyl)amino)pyrimidin-4-yl)amino)phenyl)acrylamide, reference compound]
EC50 (B cell receptor): 0.121 µM | effect on human platelet-mediated thrombus formation [8]: effect similar to Formula (10) (ibrutinib)
